Measured values taken from BindingDB's records for doi:10.1016/S0960-894X(01)80270-5 (1994).
pIC50: −log10 of the molar value.

target: T1, Neutrophil elastase (Homo sapiens, UniProt P08246); assay: Inhibitory activity against human leukocyte elastase using MeO-Suc-Ala-Ala-Pro-Val-pNA (416 uM) as substrate
T1 sequence (P08246 whole entry): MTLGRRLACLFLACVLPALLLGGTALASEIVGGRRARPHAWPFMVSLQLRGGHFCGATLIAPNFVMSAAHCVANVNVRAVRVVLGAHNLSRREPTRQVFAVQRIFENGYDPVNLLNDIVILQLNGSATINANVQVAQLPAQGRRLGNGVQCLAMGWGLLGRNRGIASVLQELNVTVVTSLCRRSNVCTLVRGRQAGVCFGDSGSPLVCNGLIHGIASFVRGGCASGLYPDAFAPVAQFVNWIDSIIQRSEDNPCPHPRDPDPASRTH

Row | pIC50 | Compound
1 | < 3.00 | COc1ccc2c(c1)c1c(O)oc(=O)nc1n2CCc1ccccc1 [6-Methoxy-9-phenethyl-1,9-dihydro-[1,3]oxazino[4,5-b]indole-2,4-dione]

target: T1, Neutrophil elastase; assay: ChEBML_86533
Procedure: Inhibitory activity against human leukocyte elastase using MeO-Suc-Ala-Ala-Pro-Val-pNA (416 uM) as substrate;No Inhibition

Row | Compound | pIC50
2 | COCCn1c2ccc(OC)cc2c2c(O)oc(=O)nc21 [6-Methoxy-9-(2-methoxy-ethyl)-1,9-dihydro-[1,3]oxazino[4,5-b]indole-2,4-dione] | < 3.00
3 | COc1ccc2c(c1)c1c(O)oc(=O)nc1n2CC(OC)OC [9-(2,2-Dimethoxy-ethyl)-6-methoxy-1,9-dihydro-[1,3]oxazino[4,5-b]indole-2,4-dione] | < 3.00
4 | COCCn1c2ccc(OC(C)=O)cc2c2c(O)oc(=O)nc21 [Acetic acid 9-(2-methoxy-ethyl)-2,4-dioxo-1,2,4,9-tetrahydro-[1,3]oxazino[4,5-b]indol-6-yl ester] | < 3.00

Continued, values first:

Row | pIC50 | Compound
5 | < 3.00 | COc1ccc2c(c1)c1c(O)oc(=O)nc1n2C1CCCCC1 [9-Cyclohexyl-6-methoxy-1,9-dihydro-[1,3]oxazino[4,5-b]indole-2,4-dione]
6 | < 3.00 | COc1ccc2c(c1)c1c(O)oc(=O)nc1n2Cc1ccccn1 [6-Methoxy-9-pyridin-2-ylmethyl-1,9-dihydro-[1,3]oxazino[4,5-b]indole-2,4-dione]
7 | < 3.00 | CCCCn1c(C)c(C)c2c(O)oc(=O)nc21 [1-Butyl-2,3-dimethyl-1,7-dihydro-5-oxa-1,7-diaza-indene-4,6-dione]
8 | < 3.00 | Cc1c(C)n(C2CCCCC2)c2nc(=O)oc(O)c12 [1-Cyclohexyl-2,3-dimethyl-1,7-dihydro-5-oxa-1,7-diaza-indene-4,6-dione]
